Key:
Type in all cases: functional, cell-based
Details in all cases: oocyte
[1] = biological target: T1, Hepatic sodium/bile acid cotransporter (Rattus norvegicus, UniProt P26435); test: TP_TRANSPORTER: inhibition of Taurocholate uptake (Taurochorate: 17 uM, Bumetanide: 500 uM) in Xenopus laevis oocytes
T1 sequence (P26435 whole entry): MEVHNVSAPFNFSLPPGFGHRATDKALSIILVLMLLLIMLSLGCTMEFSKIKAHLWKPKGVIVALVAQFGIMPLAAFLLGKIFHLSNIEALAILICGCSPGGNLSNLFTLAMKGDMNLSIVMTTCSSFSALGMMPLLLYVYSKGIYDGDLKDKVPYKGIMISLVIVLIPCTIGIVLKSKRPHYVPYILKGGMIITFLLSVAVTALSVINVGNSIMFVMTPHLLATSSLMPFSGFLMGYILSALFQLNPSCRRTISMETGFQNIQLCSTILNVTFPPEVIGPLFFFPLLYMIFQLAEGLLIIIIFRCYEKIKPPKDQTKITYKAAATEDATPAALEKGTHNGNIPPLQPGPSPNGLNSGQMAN

[2] = biological target: T1, Hepatic sodium/bile acid cotransporter; test: TP_TRANSPORTER: inhibition of Taurocholate uptake (Taurochorate: 17 uM, Probenecid: 1000 uM) in Xenopus laevis oocytes
[3] = biological target: T1, Hepatic sodium/bile acid cotransporter; test: TP_TRANSPORTER: inhibition of Taurocholate uptake (Taurochorate: 17 uM, BSP: 100 uM) in Xenopus laevis oocytes
[4] = biological target: T1, Hepatic sodium/bile acid cotransporter; test: TP_TRANSPORTER: inhibition of Taurocholate uptake (Taurochorate: 17 uM, TCDC: 100 uM) in Xenopus laevis oocytes

## CCCCNc1cc(C(=O)O)cc(S(N)(=O)=O)c1Oc1ccccc1 [BUMETANIDE]
[1]
  Activity: inhibitor [(at a rough estimate) 50 % of control]

## CCCN(CCC)S(=O)(=O)c1ccc(C(=O)O)cc1 [PROBENECID]
[2]
  Activity: inhibitor [(at a rough estimate) 70 % of control]

## O=C1OC(c2ccc(O)c(S(=O)(=O)[O-])c2)(c2ccc(O)c(S(=O)(=O)[O-])c2)c2c(Br)c(Br)c(Br)c(Br)c21.[Na+].[Na+] [SULFOBROMOPHTHALEIN SODIUM]
[3]
  Activity: inhibitor [(at a rough estimate) 25 % of control]

## C[C@H](CCC(=O)NCCS(=O)(=O)O)[C@H]1CC[C@H]2[C@@H]3[C@H](O)C[C@@H]4C[C@H](O)CC[C@]4(C)[C@H]3CC[C@]12C [TAUROCHENODEOXYCHOLATE]
[4]
  Activity: inhibitor [(at a rough estimate) 15 % of control]

— ChEMBL document CHEMBL2074189, “Functional expression cloning and characterization of the hepatocyte Na+/bile acid cotransport system” (Proc Natl Acad Sci U S A, 1991)
